Assay results as given in patent US20110129871A1, “CULTURE MEDIUM ENABLING STAPHYLOCOCCUS AUREUS TO BE DIFFERENTIATED FROM COAGULASE-NEGATIVE STAPHYLOCOCCI” (priority 2008, published 2011).

Experiments:
[1] = system: PC-PLC (lecithinase); conditions: strains ATCC 33592 and ATCC 700699, 10 CFU per well; 0.4 g/l substrate, pH 7.2, 37° C., 72h, versus uninoculated control medium (FIG. 1)
Procedure: The dynamics of the PC-PLC activity of two strains of Staphylococcus aureus ATCC 33592 and ATCC 700699 was evaluated in microplates in the presence of the medium given below. Reading of the appearance of fluorescence in each of the various wells of the microplate was then carried out in kinetic conditions.
The medium used is of the following composition, pH 7.2:
10 CFU of Staphylococcus aureus ATCC 33592 and ATCC 700699 were inoculated in the wells of the microplate in the presence of the medium described above. The microplate was then incubated at 37° C. in a TECAN reader to evaluate the PC-PLC activity of the two strains of Staphylococcus aureus in the form of the kinetics of hydrolysis of the 4MU-CP substrate, i.e. appearance of fluorescence.
Measurement of the appearance of fluorescence following hydrolysis of the 4MU-CP substrate was carried out over an incubation time of 72h for the two strains of Staphylococcus aureus tested (STA ATCC 33592 and STA ATCC 700699) versus the uninoculated control medium (baseline).

[2] = target: T1, PIPLC (Staphylococcus aureus, UniProt P45723); assay: PIPLC activity of Staphylococcus aureus strains in microplates with two fluorogenic PIPLC substrates; format: cell-based; design: key to PIPLC activity: +: strains permitting the production of fluorescence at least twice that of the background noise; −: a signal emitted by the medium that is less than the background noise; conditions: microplate, 24 hours at 37° C.; for number of strains that display PIPLC activity in the presence of the substrate: among the nineteen strains of Staphylococcus aureus ATCC tested; for PIPLC activity: substrate 0.4 g/l (4-methylumbelliferyl) or 0.2 g/l (3-chloro) in medium derived from OAA
T1 construct: endogenous in cells; host or cells: 19 Staphylococcus aureus ATCC strains (e.g. ATCC 9144, ATCC 49775) growing in culture medium
Procedure: 19 strains of Staphylococcus aureus ATCC are tested for their PIPLC activity in microplates. The tests are performed with two different fluorogenic substrates of PIPLC: 4-methylumbelliferyl-myo-inositol-1-phosphate and 3-chloro-7-hydroxy-4-methylcoumarin myo-inositol-phosphate, added at different concentrations to the constituents of the medium derived from the OAA medium described in example 1.
The strains tested, at an initial concentration of 10^8 (CFU)/ml, are diluted in a tryptone salt broth, so as to obtain a final concentration at 10^3 CFU/ml.
10 μl of this bacterial suspension is added to 200 μl of culture medium. Each strain was incubated for 24 hours at 37° C. with each of the media in the microplate reader marketed by the company TECAN under the name GENios™.
The + signs correspond to the strains permitting the production of fluorescence at least twice that of the background noise, The − signs correspond to a signal emitted by the medium that is less than the background noise.

T1 sequence (P45723 27-312): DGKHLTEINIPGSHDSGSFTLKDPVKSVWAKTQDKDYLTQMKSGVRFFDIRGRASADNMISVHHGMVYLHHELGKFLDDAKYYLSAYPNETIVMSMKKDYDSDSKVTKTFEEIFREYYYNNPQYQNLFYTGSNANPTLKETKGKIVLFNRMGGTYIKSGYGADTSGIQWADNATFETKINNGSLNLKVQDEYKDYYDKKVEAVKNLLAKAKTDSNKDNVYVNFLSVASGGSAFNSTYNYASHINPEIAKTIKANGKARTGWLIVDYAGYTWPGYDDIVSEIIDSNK

Row | Structure (SMILES) | number of strains that display PIPLC activity in the presence of the substrate [2] | PIPLC activity ([2]; strain ATCC 6538) | PIPLC activity ([2]; strain ATCC 9144) | PIPLC activity ([2]; strain ATCC 12598) | PIPLC activity ([2]; strain ATCC 13150) | PIPLC activity ([2]; strain ATCC 29213) | PIPLC activity ([2]; strain ATCC 33591) | PIPLC activity ([2]; strain ATCC 33592) | PIPLC activity ([2]; strain ATCC 33593) | PIPLC activity ([2]; strain ATCC 33862) | PIPLC activity ([2]; strain ATCC 43300) | PIPLC activity ([2]; strain ATCC 43866) | PIPLC activity ([2]; strain ATCC 49775) | PIPLC activity ([2]; strain ATCC 51153) | PIPLC activity ([2]; strain ATCC 51740) | PIPLC activity ([2]; strain ATCC 700698) | PIPLC activity ([2]; strain ATCC 700699) | PIPLC activity ([2]; strain ATCC 700788) | PIPLC activity ([2]; strain ATCC 700789) | PIPLC activity ([2]; strain CCM 6188) | other results
1 | Cc1cc(=O)oc2cc(OP(=O)([O-])OCC[N+](C)(C)C)ccc12 [4MU-CP, 4-Methylumbelliferyl choline-phosphate] |  |  |  |  |  |  |  |  |  |  |  |  |  |  |  |  |  |  |  |  | detection of Staphylococcus aureus by hydrolysis of the fluorogenic PC-PLC substrate (appearance of fluorescence) [1]: permits the detection and discrimination of Staphylococcus aureus
2 | Cc1cc(=O)oc2cc(OP(=O)(O)OC3C(O)C(O)C(O)C(O)C3O)ccc12 (centres unmarked) [4-Methylumbelliferyl myo-inositol-1-phosphate] | 17 | + (strains permitting the production of fluorescence at least twice that of the background noise) | + (strains permitting the production of fluorescence at least twice that of the background noise) | + (strains permitting the production of fluorescence at least twice that of the background noise) | + (strains permitting the production of fluorescence at least twice that of the background noise) | + (strains permitting the production of fluorescence at least twice that of the background noise) | + (strains permitting the production of fluorescence at least twice that of the background noise) | + (strains permitting the production of fluorescence at least twice that of the background noise) | + (strains permitting the production of fluorescence at least twice that of the background noise) | + (strains permitting the production of fluorescence at least twice that of the background noise) | + (strains permitting the production of fluorescence at least twice that of the background noise) | + (strains permitting the production of fluorescence at least twice that of the background noise) | − | + (strains permitting the production of fluorescence at least twice that of the background noise) | + (strains permitting the production of fluorescence at least twice that of the background noise) | + (strains permitting the production of fluorescence at least twice that of the background noise) | + (strains permitting the production of fluorescence at least twice that of the background noise) | + (strains permitting the production of fluorescence at least twice that of the background noise) | + (strains permitting the production of fluorescence at least twice that of the background noise) | − | 
3 | Cc1c(Cl)c(=O)oc2cc(OP(=O)([O-])OC3C(O)C(O)C(O)C(O)C3O)ccc12.[Li+] (centres unmarked) [3-Chloro-7-hydroxy-4-methylcoumarin myo-inositol-1-phosphate] | 18 | + (strains permitting the production of fluorescence at least twice that of the background noise) | + (strains permitting the production of fluorescence at least twice that of the background noise) | + (strains permitting the production of fluorescence at least twice that of the background noise) | + (strains permitting the production of fluorescence at least twice that of the background noise) | + (strains permitting the production of fluorescence at least twice that of the background noise) | + (strains permitting the production of fluorescence at least twice that of the background noise) | + (strains permitting the production of fluorescence at least twice that of the background noise) | + (strains permitting the production of fluorescence at least twice that of the background noise) | + (strains permitting the production of fluorescence at least twice that of the background noise) | + (strains permitting the production of fluorescence at least twice that of the background noise) | + (strains permitting the production of fluorescence at least twice that of the background noise) | − | + (strains permitting the production of fluorescence at least twice that of the background noise) | + (strains permitting the production of fluorescence at least twice that of the background noise) | + (strains permitting the production of fluorescence at least twice that of the background noise) | + (strains permitting the production of fluorescence at least twice that of the background noise) | + (strains permitting the production of fluorescence at least twice that of the background noise) | + (strains permitting the production of fluorescence at least twice that of the background noise) | + (strains permitting the production of fluorescence at least twice that of the background noise) | 
